Data reported in patent US8492515B2 (priority 2008, dated 2013).
Values after ≈ are worked out from the molar mass of the structure shown. Square brackets hold non-standard residues; d marks the D form. Peptide text beside a SMILES is read from it. Ac6c = NC1(C(=O)O)CCCCC1

Assays:
E. coli SEQ102 = conditions: SEQ102, 16 h
Source text: (§1) To investigate the activity of the A3-APO metabolites, Chex1-Arg20 single chain unit and an Arg7-Arg20 common cleavage fragment were synthesized and studied for their ability to kill Enterobacteriaceae strains in undiluted Muller-Hinton broth, a true measure of potential clinical viability (Otvos et al., 2005. J. Med. Chem. 48: 5349-5359). The peptides of the invention were made on a CEM Liberty automated synthesizer with standard Fmoc-chemistry. The peptides were detached from the resin with the carboxyl terminus of the C-terminal Arg residue being in the form of an amino amide, —C(O)—NH2 (“Chex1-Arg20-NH2” and “Arg7-Arg20-NH2”), while still in the microwave chamber, and were purified by RP-HPLC. […] The biological studies carried out on chemically synthesized peptides in this example and succeeding examples were carried out on the C-terminal modified versions of the peptides wherein the C-terminal carboxylic acid function was in the form of an amide, —C(O)—NH2. Antibacterial growth inhibition assays were performed using sterile 96-well polypropylene plates (Nunc F96 microtiter plates) in a final volume of 100 μL as described previously (Cudic et al., 2002. Peptides 23: 271-283). The cell concentrations were estimated by measuring the ultraviolet absorbance at 600 nm and applying the formula cfu/mL=A600(3.8×10^8), where cfu is the number of colony-forming units. Briefly, 50 μL of a suspension of midlogarithmic phase bacterial cultures diluted to 5×10^5 cfu/mL in Muller-Hinton broth (MHB) was added to 50 μL of serially diluted peptides also dissolved in MHB. The final peptide concentration was 128 μg/mL. Cultures were then incubated at 37° C., 5% CO2 for 16-20 h without shaking, and growth inhibition was measured by recording the absorbance at 600 nm using a microplate reader. […] The minimal inhibitory concentration indicates the lowest peptide dose where no visible bacterial growth is detected after 16 hours incubation in full strength Muller-Hinton broth at 37° C. The peptide Chex-pyrr-Dap dimer was also included in the study. […] (Cudic et al., 2002. Peptides 23: 271-283).

K. pneumoniae HK123 = conditions: HK123, 16 h
Source text: as §1

S. typhimurium G10215 = conditions: G10215, 16 h
Source text: as §1

E. coli HK101 = conditions: quarter strength Mueller-Hinton broth, overnight, 37° C.
Source text: To investigate the activity of the A3-APO metabolites, Chex1-Arg20 single chain unit and an Arg7-Arg20 common cleavage fragment were synthesized and […], a true measure of potential clinical viability (Otvos et al., 2005. J. Med. Chem. 48: 5349-5359). The peptides of the invention were made on a CEM Liberty automated synthesizer with standard Fmoc-chemistry. The peptides were detached from the resin with the carboxyl terminus of the C-terminal Arg residue being in the form of an amino amide, —C(O)—NH2 (“Chex1-Arg20-NH2” and “Arg7-Arg20-NH2”), while still in the microwave chamber, and were purified by RP-HPLC. […] The biological studies carried out on chemically synthesized peptides in this example and succeeding examples were carried out on the C-terminal modified versions of the peptides wherein the C-terminal carboxylic acid function was in the form of an amide, —C(O)—NH2. […] The cell concentrations were estimated by measuring the ultraviolet absorbance at 600 nm and applying the formula cfu/mL=A600(3.8×10^8), where cfu is the number of colony-forming units. […] Cultures were then incubated at 37° C., 5% CO2 for 16-20 h without shaking, and growth inhibition was measured by recording the absorbance at 600 nm using a microplate reader. […]
Following the protocol of Example 2, minimal inhibitory concentrations of the Chex1-Arg20 peptide against selected bacteria was determined. […]

E. coli HK179 = system: E. coli HK179
Source text: as §1
Following the protocol of Example 2, minimal inhibitory concentrations of the Chex1-Arg20 peptide against selected bacteria was determined. […] A3-APO was included for comparison.

[1] = system: extended-spectrum β-lactamase producing E. coli strain (designation 5770); test: Systemic infection model, cisplatin-pretreated CD-1 mice, blood bacterial counts; assay type: in vivo
Protocol: (§2) As peptide drugs, such as antimicrobial peptides, are predominantly cleared through the kidneys (Klootwijk et al., 1997. J. Clin. Endocrinol. Metab. 82: 3068-3073) and the kidney functions of mice are 20-fold faster than those of humans, CD-1 female mice of 15-20 g were pretreated with 18 mg/kg cisplatin for 3 days to impair kidney clearance similar to the levels observed in humans (Mathe et al., 2006. Lab. Anim. 40: 296-300) before they were challenged intraperitoneally (ip) with 10^8 CFU per g mouse of an extended-spectrum β-lactamase producing E. coli strain (designation 5770). Four, 8 and 12 hours after challenge 10 or 20 mg/kg peptide Chex1-Arg20 or 40 mg/kg imipenem (as a positive control) were administered ip to 10 mice in each group. Imipenem is a broad spectrum β-lactam antibiotic. Prior to drug administration at all three timepoints, blood was taken from the tail vein of 3-5 mice for determining blood bacterial counts. […] Antimicrobials were administered ip 4 hours after challenge 3 times in 4 hour intervals. Blood was taken immediately before antimicrobial treatments. Numbers in parentheses indicate the number of mice with <10^3 CFU/mL. Bacterial counts were determined 10 times from different dilution of blood from 5 mice in each group in each timepoints.

[2] = Gross necropsy of surviving mice three days post-infection; assay type: in vivo, CD-1 mice; conditions: 10 or 20 mg/kg ip
Protocol: as §2
The skin was smooth, and healthy liver, lungs, spleen and kidneys were registered.

[3] = system: Escherichia coli isolates
[4] = system: Salmonella typhimurium isolates; conditions: murium isolates

SMILES: CC(C)C[C@H](NC(=O)[C@H](Cc1ccc(O)cc1)NC(=O)[C@@H]1CCCN1C(=O)[C@H](CCCNC(=N)N)NC(=O)[C@@H]1CCCN1C(=O)[C@H](CCCCN)NC(=O)[C@H](CC(=O)O)NC(=O)[C@@H]1CCCN1C(=O)[C@H](CCCNC(=N)N)NC(=O)C1(N)CCCCC1)C(=O)N1CCC[C@H]1C(=O)N[C@@H](CCCNC(=N)N)C(=O)N1CCC[C@H]1C(=O)N[C@@H](CCCNC(=N)N)C(=O)N1CCC[C@H]1C(=O)N1CCC[C@H]1C(=O)N[C@@H](CCCNC(=N)N)C(=O)N1CCC[C@H]1C(=O)N[C@H](C(=O)N[C@@H](CCCNC(=N)N)C(=O)O)C(C)C [Chex1-Arg20, Chex-Arg-Pro-Asp-Lys-Pro-Arg-Pro-Tyr-Leu-Pro-Arg-Pro-Arg--Pro-Pro-Arg-Pro-Val-Arg] (H-[Ac6c]RPDKPRPYLPRPRPPRPVR-OH; N-terminus and C-terminus assumed)
- MIC against E. coli SEQ102 (E. coli SEQ102): 32 µg/mL (≈ 12.9 µM)
- MIC against K. pneumoniae HK123 (K. pneumoniae HK123): 8 µg/mL (≈ 3.23 µM)
- MIC against S. typhimurium G10215 (S. typhimurium G10215): 4 µg/mL (≈ 1.62 µM)
- MIC, E. coli HK101 (E. coli HK101): 0.5 µg/mL (≈ 0.202 µM)
- MIC, E. coli HK179 (E. coli HK179): 1 µg/mL (≈ 0.404 µM)
- bacterial count reduction ([1]; 10 mg/kg): approximately 3 log 10 units
- Bacterial counts in blood after inoculation/challenge ([1]; 10 mg/kg ip, 4 h (blood taken before first dose)): 3.2 × 10^5 CFU/mL
- Bacterial counts in blood after inoculation/challenge ([1]; 10 mg/kg ip, 8 h): 8.2 × 10^3 CFU/mL
- number of mice with <10^3 CFU/mL ([1]; 10 mg/kg ip, 8 h): 1/5
- Bacterial counts in blood after inoculation/challenge ([1]; 10 mg/kg ip, 12 h): < 1.3 × 10^4 CFU/mL
- number of mice with <10^3 CFU/mL ([1]; 10 mg/kg ip, 12 h): 1/5
- effect on mouse blood after a lethal E. coli infection ([1]; 20 mg/kg): sterilized mouse blood
- Bacterial counts in blood after inoculation/challenge ([1]; 20 mg/kg ip, 4 h (blood taken before first dose)): 3.2 × 10^5 CFU/mL
- Bacterial counts in blood after inoculation/challenge ([1]; 20 mg/kg ip, 8 h): 5.5 × 10^4 CFU/mL
- number of mice with <10^3 CFU/mL ([1]; 20 mg/kg ip, 8 h): 3/5
- Bacterial counts in blood after inoculation/challenge ([1]; 20 mg/kg ip, 12 h): < 3.7 × 10^3 CFU/mL
- number of mice with <10^3 CFU/mL ([1]; 20 mg/kg ip, 12 h): 3/5
- bacterial count reduction ([1]; after two doses of 20 mg/kg): 3.5 log 10 units
- mice having blood bacterial levels below detection limits ([1]; after two doses of 20 mg/kg): 60%
- internal bleeding (hemolysis) [2]: no signs of internal bleeding
- signs of toxicity at gross necropsy [2]: no signs of toxicity
- minimal bactericidal concentrations (MBC) [3]: 2 to 32 µg/mL
- minimal bactericidal concentrations (MBC) [4]: 4 µg/mL (≈ 1.62 µM)
